Data on two compounds can be found in US11091476B2, “Protein kinase inhibitors, preparation method and medical use thereof” (Gan & Lee Pharmaceuticals, priority 2015, dated 2021).

A short description of series [1]: Plasma and brain exposure levels after single intragastric administration. The note with it: for Cmax: read-out: Blood concentration Cmax, Plasma. Format: in vivo, CD-1 mice. On the procedure: The CD-1 mice were used as the test animals, the concentrations of the drugs in the plasma and brain tissue of mice at different time points after single intragastric administration of the representative compound of this disclosure were determined by LC/MS/MS, so as to study the plasma level and brain exposure level of the compounds of the disclosure in mice.
For each test drug, 12 male CD-1 mice were administered intragastrically at a dose of 10 mg/kg and an administration volume of 10 ml/kg after fasting overnight.
The whole brain was collected, mashed and frozen in liquid nitrogen. Ten hours after administration, the remaining animals were sacrificed, whole blood was collected by cardiac puncture, and the whole brain was collected, mashed and frozen in liquid nitrogen.
The whole brain was collected, mashed and frozen in liquid nitrogen. 48 hours after administration, the remaining animals were sacrificed, whole blood was collected by cardiac puncture, and the whole brain was collected, mashed and frozen in liquid nitrogen.
Treatment of the whole blood sample: The collected whole blood was anticoagulated with EDTA-K2, and centrifuged, the supernatant was removed, and the residue was frozen and stored at −20° C. until the sample was analyzed by LC-MS/MS.
Brain homogenate sampling: Brain homogenate were dispersed with PBS (pH=7.4): MeOH (v:v, 2:1) solution in a volume 5 times of the volume of the brain homogenate. 100 μl of solution was taken, and the protein therein was precipitated with 600 μl IS. The mixture was centrifuged at 13,000 rpm and 20-25° C. for 15 minutes. 50 μL of the supernatant was mixed with 150 μL of water containing 0.3% FA and centrifuged at 4° C. 5 μL of the sample was analyzed by LC-MS/MS.
The linear range of sample analysis was 1-2000 ng/ml, and the lowest quantification limit was 1 ng/ml.

Series [2] in a line: Rat pharmacokinetic determination (LC/MS/MS of plasma). Format: in vivo, SD rats. The note with it: for bioavailability: oral, intragastric 5 mg/kg vs intravenous 2 mg/kg; for AUC(0-inf): read-out: Area under curve AUC0-∞; for AUC(0-t): read-out: Area under curve AUC0-t; for Vd: read-out: Apparent volume of distribution VZ; for clearance: read-out: Clearance rate Cl; for MRT: read-out: Retention time MRT; for half-life: read-out: Half life T1/2 (converted). On the procedure: Rat Pharmacokinetic Determination of Representative Compounds of the Present Disclosure
SD rats were used as the test animals, and the concentrations of the drugs in the plasma of rats at different time points after the intravenous administration and intragastric administration of the representative compounds were determined by LC/MS/MS, so as to study the pharmacokinetic behavior of the compounds of the disclosure in rats and evaluate the pharmacokinetic characteristics thereof.
Intragastric administration: An appropriate amount of sample was weighed, and added with 0.1% hydroxyethyl cellulose/0.5% TWEEN®80 to a final volume to give 1 mg/ml solution.
Whole blood was anticoagulated with EDTA-K2 and centrifuged, the supernatant was removed, and the residue was frozen at −20° C. until sample analysis. Plasma samples were analyzed by LC-MS/MS, sample pretreatment was performed using a protein precipitation method, the linear range of sample analysis was 1-2000 ng/ml, and the lowest quantification limit was 1 ng/ml.

Setting [3] is: male, mouse, po, CD-1 mice, intragastric 10 mg/kg, brain, read-out: Area under curve AUC0-last, Brain.
Setting [4] is: male, mouse, po, CD-1 mice, intragastric 10 mg/kg, brain, read-out: The time for blood concentration reaching peak Tmax, Brain.
The mark [5] stands for this setting: male, mouse, po, CD-1 mice, intragastric 10 mg/kg, plasma, read-out: Area under curve AUC0-last, Plasma.
[6] abbreviates: male, mouse, po, CD-1 mice, intragastric 10 mg/kg, plasma.
Setting [7] is: male, mouse, po, CD-1 mice, intragastric 10 mg/kg, plasma, read-out: The time for blood concentration reaching peak Tmax, Plasma.
The mark [8] stands for this setting: male, SD, rat, plasma, po, rats, single intragastric administration, 5 mg/kg.
Where [9] appears, read: male, rat, plasma, po, rats, single intragastric administration, 5 mg/kg, Mean ± SD.
Setting [10] is: male, rat, plasma, rats, single intravenous administration, 2 mg/kg, Mean ± SD.

The structures appear in SMILES notation. “Also recorded” adds a separate entry of the source. Like-named read-outs stand apart in the source and are kept apart here.

Regarding `CCN1CCN(Cc2ccc(Nc3ncc(F)c(-c4cc(F)c5nc(C)n(C(C)C)c5c4)n3)nc2)CC1` [LY2835219, reference compound], the AUC(0-t) in series [1] (setting [3]) was 1110 ng·h/mL; in series [1] (setting [5]), 4250 ng·h/mL; in series [2] (setting [9]), 3280 ± 731 ng·h/mL; in series [2] (setting [10]), 1500 ± 337 ng·h/mL. The Tmax in series [1] (setting [4]) worked out at 6 h; in series [1] (setting [7]) it was 1.5 h. The Cmax in series [1] (setting [6]) was determined as 836 ng/mL. Further, the bioavailability in series [2] (male, SD, rat, plasma, rats) is 87.4%. The AUC(0-inf) in series [2] (setting [8]) turned out to be 3440 ng·h/mL. In series [2] (setting [10]), the Vd worked out at 6.95 ± 2.43 L/kg. The clearance in series [2] (setting [10]) was determined as 22.4 ± 4.49 mL/min/kg. Moreover, in series [2] (setting [10]), the MRT was determined as 3.82 ± 1.44 h.
Consider `CC1=Nc2c(F)cc(-c3nc(Nc4ccc(C5CCN(C)CC5)cn4)ncc3F)cc2C12CCCC2` [Example 17, 5-Fluoro-4-(7′-fluoro-2′-methylspiro[cyclopentane-1,3′-indol]-5′-yl)-N-(5-(1-methylpiperidin-4-yl)pyridin-2-yl)pyrimidine-2-amino], for which the “Blood concentration Cmax, Brain” value in series [1] (CD-1 mice, intragastric 10 mg/kg, brain) was determined as 1270 ng/mL. Besides, the Kp in series [1] (male, mouse, brain/plasma, po, CD-1 mice, intragastric 10 mg/kg, ratio, read-out: Cmax Brain/Plasma) was determined as 1.98. For the same compound, the AUC(0-t) amounted to 16800 ng·h/mL in series [1] (setting [3]), 7660 ng·h/mL in series [1] (setting [5]), 2610 ± 1220 ng·h/mL in series [2] (setting [9]) and 1020 ± 239 ng·h/mL in series [2] (setting [10]). Further, the Tmax in series [1] (setting [4]) and in series [1] (setting [7]) was 4 h each time. Also, the Cmax was 639 ng/mL in series [1] (setting [6]) and 188 ± 75 ng/mL in series [2] (male, rat, plasma, po, rats, single intragastric administration, 5 mg/kg, Mean ± SD, read-out: Blood concentration Cmax). The “Blood brain distribution, in words” value in series [1] (mice, relative to LY2835219) is given as “better blood brain distribution; also recorded: good blood-brain distribution”. Also, the bioavailability in series [2] (male, SD, rat, plasma, rats) stood at 102%. Besides, the AUC(0-inf) in series [2] (setting [8]) worked out at 5260 ng·h/mL; in series [2] (setting [10]), 1220 ± 456 ng·h/mL. Further, the half-life was 2 h in series [2] (setting [8]) and 8.67 ± 4.98 h in series [2] (setting [10]). Also, the MRT stood at 10.2 ± 0.27 h in series [2] (setting [9]) and 7.78 ± 1.3 h in series [2] (setting [10]). In series [2] (setting [10]), the Vd worked out at 19.4 ± 5.89 L/kg. In addition, the clearance in series [2] (setting [10]) stood at 30 ± 11.1 mL/min/kg. Moreover, the “Bioavailability in rats, in words” value in series [2] (relative to LY2835219) is reported as “higher bioavailability”.
